The values that follow come from the NIST ThermoML archive (doi:10.1021/je700063c).

Numbers after ± are expanded uncertainties.

What is called mass density is the mass of a sample divided by its volume.

For this data set the following is noted: Liquid; for mass density: 298.15 K, 101.33 kPa, Pycnometric method; for Normal boiling temperature: Distillation.

In the case of `CC(C)CO` [2-methyl-1-propanol], the mass density turned out to be 797.8 ± 0.7 kg/m3 and the Normal boiling temperature came out at 107.77 ± 0.1 °C. `CCCCO` [butan-1-ol]: the mass density stood at 805.8 ± 0.7 kg/m3. As to `CCC(C)O` (stereo not given) [butan-2-ol], the mass density is reported as 802.4 ± 0.7 kg/m3 and the Normal boiling temperature was 99.46 ± 0.1 °C.
